The record followed here is US8445689B2, “Pesticides” (Dow AgroSciences, LLC., priority 2008, dated 2013).

As usually defined, the melting point is the temperature of the solid-liquid transition.

Series [1] deals with Green Peach Aphid (Myzus persicae). Description: Insecticidal test for green peach aphid in foliar spray assay on cabbage. It is filed as in vivo. To be noted: 72 h, read-out: Rating against green peach aphid on cabbage (foliar spray). How it is done: Compounds 1-67 were tested against green peach aphid using procedures described hereinafter.
Insecticidal Test for Green Peach Aphid (Myzus persicae) in Foliar Spray Assay
Cabbage seedlings grown in 3-inch pots, with 2-3 small (3-5 cm) true leaves, were used as test substrate. The seedlings were infested with 20-50 green peach aphids (wingless adult and nymph) 1-2 d prior to chemical application. Four seedlings were used for each treatment. Compounds (2 mg) were dissolved in 2 mL of acetone-methanol (1:1) solvent, forming stock solutions of 1000 ppm. The stock solutions were diluted 5× with 0.025% Tween 20 in H2O to obtain a solution at 200 ppm. A hand-held Devilbiss aspirator sprayer was used for spraying a solution to both sides of cabbage leaves until runoff. Reference plants (solvent check) were sprayed with the diluent only. Treated plants were held in a holding room for 3 d at approximately 23° C. and 40% RH prior to grading. Evaluation was conducted by counting the number of live aphids per plant under a microscope. Insecticidal activity was measured by using Abbott's correction formula: Corrected % Control=100*(X−Y)/X • where X=No. of live aphids on solvent check plants • Y=No. of live aphids on treated plants

Where [2] appears, read: 200 ppm foliar spray on cabbage seedlings, graded after 3 d, corrected % control (Abbott).

The structures appear in SMILES notation. Read-outs that look alike come from different tables or passages of the source.

For `CC(c1ccc(C(F)(F)F)nc1)S(C)(=O)=N/C(N)=N/OCC1CC1(F)F` (stereo not drawn) [Compound 52], the pest or weed control at 200 ppm in series [1] (setting [2]) was 80 to 100%. On the same count and under the same terms, for `CC(=O)O/N=C(\N)N=S(C)(=O)C(C)c1ccc(C(F)(F)F)nc1` (stereo not drawn) [Compound 44, N″-(acetyloxy)-N-(methyl(oxido){1-[6-(trifluoromethyl)pyridin-3-yl]ethyl}-λ^4-sulfanylidene)guanidine] the value was 80 to 100%. Molecule `CC(c1ccc(C(F)(F)F)nc1)S(C)(=O)=NC(=S)Nc1ccc(OC(F)(F)F)cc1` (stereo not drawn) [Compound 21] returned a melting point of 149 to 151 °C. For the same molecule, the pest or weed control at 200 ppm in series [1] (setting [2]) is under 80%. For the molecule `CC(c1ccc(C(F)(F)F)nc1)S(C)(=O)=NC(=N)N` (stereo not drawn) [Compound 45, N-(methyl(oxido){1-[6-(trifluoromethyl)pyridin-3-yl]ethyl}-λ^4-sulfanylidene)guanidine], in series [1] (setting [2]), the pest or weed control at 200 ppm is under 80%. For `CC(c1ccc(C(F)(F)F)nc1)S(C)(=O)=NC(=S)N1CCCC1` (stereo not drawn) [Compound 25], in series [1] (setting [2]), the pest or weed control at 200 ppm lay within 80 to 100%. On the same count and under the same terms, for `CS(=O)(=N/C(N)=N/O)C(CC1CC1)c1ccc(C(F)(F)F)nc1` (stereo not drawn) [Compound 43, N-[{2-cyclopropyl-1-[6-(trifluoromethyl)pyridin-3-yl]ethyl}(methyl)oxido-λ^4-sulfanylidene]-N″-hydroxyguanidine] the value was 80 to 100%; for `CC(c1ccc(C(F)(F)F)nc1)S(C)(=O)=N/C(N)=N/OCCC=C(F)F` (stereo not drawn) [Compound 56], 80 to 100%; for `COCCO/N=C(\N)N=S(C)(=O)C(C)c1ccc(C(F)(F)F)nc1` (stereo not drawn) [Compound 60], 80 to 100%. As for `COc1ccc(C(=O)NC(=S)N=S(C)(=O)C(C)c2ccc(C(F)(F)F)nc2)cc1` (stereo not drawn) [Compound 17], the pest or weed control at 200 ppm in series [1] (setting [2]) is 80 to 100%. On the same count and under the same terms, the figure for `CS(=O)(=N/C(N)=N/O)C(C/C=C/Cl)c1ccc(Cl)nc1` (stereo not drawn) [Compound 41, N-[[(3E)-4-Chloro-1-(6-chloropyridin-3-yl)but-3-enyl](methyl)oxido-λ^4-sulfanylidene]-N″-hydroxyguanidine] is under 80%; for `CC(c1ccc(C(F)(F)F)nc1)S(C)(=O)=NC(=S)NC(=O)c1ccc(Cl)cc1` (stereo not drawn) [Compound 16] it is 80 to 100%. Same read-out and setting: the figure for `CC(c1ccc(C(F)(F)F)nc1)S(C)(=O)=NC(=S)N1CCCCC1` (stereo not drawn) [Compound 26] is 80 to 100%. `CS(=O)(=NC(=O)Nc1ccc(C(F)(F)F)cc1)c1ccc(Cl)cc1` (stereo not drawn) [Compound 1, N-[(4-chlorophenyl)(methyl)oxido-λ^4-sulfanylidene]-N′-[4-(trifluoromethyl)phenyl]urea]: the melting point fell in the range of 131 to 134 °C. Consider `C=CCO/N=C(\N)N=S(C)(=O)C(C)c1ccc(C(F)(F)F)nc1` (stereo not drawn) [Compound 53], for which the pest or weed control at 200 ppm in series [1] (setting [2]) fell in the range of 80 to 100%. The same measure, in the same setting: for `CCNC(=S)N=S(C)(=O)C(C)c1ccc(C(F)(F)F)nc1` (stereo not drawn) [Compound 6] the value was 80 to 100%; for `CC(c1ccc(C(F)(F)F)nc1)S(C)(=O)=N/C(N)=N/OCCCF` (stereo not drawn) [Compound 54], 80 to 100%.

`COc1ccc(CO/N=C(\N)N=S(C)(=O)C(C)c2ccc(C(F)(F)F)nc2)cc1` (stereo not drawn) [Compound 47]: the pest or weed control at 200 ppm in series [1] (setting [2]) fell in the range of 80 to 100%. On the same count and under the same terms, the figure for `CC(c1ccc(C(F)(F)F)nc1)S(C)(=O)=NC(=S)Nc1cccnc1` (stereo not drawn) [Compound 4, N-(methyl(oxido){1-[6-(trifluoromethyl)pyridin-3-yl]ethyl}-λ^4-sulfanylidene)-N′-pyridin-3-ylthiourea] is under 80%; for `CC(C)O/N=C(\N)N=S(C)(=O)C(C)c1ccc(C(F)(F)F)nc1` (stereo not drawn) [Compound 50] it is 80 to 100%; for `CC(c1ccc(C(F)(F)F)nc1)S(C)(=O)=NC(=S)N1CCOCC1` (stereo not drawn) [Compound 27] it is 80 to 100%.

With `CC(c1ccc(C(F)(F)F)nc1)S(C)(=O)=NC(=O)NC(=O)CCl` (stereo not drawn) [Compound 3, N-(chloroacetyl)-N′-(methyl(oxido){1-[6-(trifluoromethyl)pyridin-3-yl]ethyl}-λ^4-sulfanylidene)urea], the pest or weed control at 200 ppm in series [1] (setting [2]) was 80 to 100%. The same measure, in the same setting: the figure for `CC(C)O/N=C(\N)N=S(C)(=O)C(C/C=C/Cl)c1ccc(Cl)nc1` (stereo not drawn) [Compound 64, N-[[(3E)-4-Chloro-1-(6-chloropyridin-3-yl)but-3-enyl](methyl)oxido-λ^4-sulfanylidene]-N″-isopropoxyguanidine] is under 80%; for `CC(c1ccc(C(F)(F)F)nc1)S(C)(=O)=N/C(=N/OCc1ccc(Cl)cc1)NCc1ccc(Cl)cc1` (stereo not drawn) [Compound 57] it is under 80%. For `CCN(CC)C(=S)N=S(C)(=O)C(C)c1ccc(C(F)(F)F)nc1` (stereo not drawn) [Compound 24], in series [1] (setting [2]), the pest or weed control at 200 ppm was 80 to 100%. For the molecule `COc1ccc(CN/C(N=S(C)(=O)C(C)c2ccc(C(F)(F)F)nc2)=N\OCc2ccc(OC)cc2)cc1` (stereo not drawn) [Compound 58], the pest or weed control at 200 ppm in series [1] (setting [2]) lay within 80 to 100%. The same measure, in the same setting: the figure for `CS(=O)(Cc1ccc(C(F)(F)F)nc1)=N/C(N)=N/O` (stereo not drawn) [Compound 42, N′-hydroxy-N-(methyl(oxido){[6-(trifluoromethyl)pyridin-3-yl]methyl}-λ^4-sulfanylidene)guanidine] is 80 to 100%; for `COC(=O)C(C)NC(=S)N=S(C)(=O)C(C)c1ccc(C(F)(F)F)nc1` (stereo not drawn) [Compound 10] it is 80 to 100%. The same measure, in the same setting: for `CC(c1ccc(C(F)(F)F)nc1)S(C)(=O)=NC(=O)C(C)(C)C` (stereo not drawn) [Compound 67, 2,2-dimethyl-N-(methyl(oxido){1-[6-(trifluoromethyl)pyridin-3-yl]ethyl}-λ^4-sulfanylidene)propanamide] the value was under 80%.

`CS(=O)(=N/C(N)=N/O)C(CC1CC1)c1ccc(Cl)nc1` (stereo not drawn) [Compound 40, N-[[1-(6-chloropyridin-3-yl)-2-cyclopropylethyl](methyl)oxido-λ^4-sulfanylidene]-N″-hydroxyguanidine]: the pest or weed control at 200 ppm in series [1] (setting [2]) was under 80%. Same read-out and setting: the figure for `CC(c1ccc(C(F)(F)F)nc1)S(C)(=O)=N/C(N)=N/OCC1CO1` (stereo not drawn) [Compound 61] is 80 to 100%. Same read-out and setting: the figure for `CC(c1ccc(C(F)(F)F)nc1)S(C)(=O)=N/C(N)=N/OCCF` (stereo not drawn) [Compound 59] is 80 to 100%; for `CC(c1ccc(C(F)(F)F)nc1)S(C)(=O)=NC(=O)C(F)F` (stereo not drawn) [Compound 66, 2,2-difluoro-N-(methyl(oxido){1-[6-(trifluoromethyl)pyridin-3-yl]ethyl}-λ^4-sulfanylidene)acetamide] it is 80 to 100%.

On to `CO/N=C(\N)N=S(C)(=O)C(C)c1ccc(C(F)(F)F)nc1` (stereo not drawn) [Compound 48], for which the pest or weed control at 200 ppm in series [1] (setting [2]) lay within 80 to 100%. On the same count and under the same terms, for `CCO/N=C(\N)N=S(C)(=O)C(C)c1ccc(C(F)(F)F)nc1` (stereo not drawn) [Compound 49] the value was 80 to 100%; for `CS(=O)(Cc1ccc(C(F)(F)F)nc1)=NC(N)=S` (stereo not drawn) [Compound 29, N-(methyl(oxido){[6-(trifluoromethyl)pyridin-3-yl]methyl}-λ^4-sulfanylidene)thiourea], 80 to 100%; for `CC(c1ccc(C(F)(F)F)nc1)S(C)(=O)=NC(=S)NC(=O)c1ccco1` (stereo not drawn) [Compound 18], 80 to 100%. On the same count and under the same terms, for `CC(c1ccc(C(F)(F)F)nc1)S(C)(=O)=NC(=S)NCCN1CCOCC1` (stereo not drawn) [Compound 11] the value was 80 to 100%. Same read-out and setting: the figure for `CNC(=S)N=S(C)(=O)C(C)c1ccc(C(F)(F)F)nc1` (stereo not drawn) [Compound 13] is 80 to 100%. For `CC(c1ccc(C(F)(F)F)nc1)S(C)(=O)=N/C(N)=N/OCc1ccc(Cl)cc1` (stereo not drawn) [Compound 46, N′-[(4-chlorobenzyl)oxy]-N-(methyl(oxido) {1-[6-(trifluoromethyl)pyridin-3-yl]ethyl}-λ^4-sulfanylidene)guanidine], in series [1] (setting [2]), the pest or weed control at 200 ppm fell in the range of 80 to 100%.

With `Cc1ccc(C(C)S(C)(=O)=NC(=S)NC(=O)OCC2c3ccccc3-c3ccccc32)cn1` (stereo not drawn) [Compound 32, 9H-fluoren-9-ylmethyl({methyl[1-(6-methylpyridin-3-yl)ethyl]oxido-λ^4-sulfanylidene}amino)carbonothioylcarbamate], in series [1] (foliar), the pest or weed control at 200 ppm is under 80%. Regarding `CC(c1ccc(C(F)(F)F)nc1)S(C)(=O)=NC(=S)N(C)C` (stereo not drawn) [Compound 23, N,N-dimethyl-N′-(methyl(oxido){1-[6-(trifluoromethyl)pyridin-3-yl]ethyl}-λ^4-sulfanylidene)thiourea], in series [1] (setting [2]), the pest or weed control at 200 ppm is 80 to 100%. Still for that read-out and setting: the figure for `CC(c1ccc(C(F)(F)F)nc1)S(C)(=O)=NC(=S)NCc1ccco1` (stereo not drawn) [Compound 8] is 80 to 100%; for `CC(c1ccc(C(F)(F)F)nc1)S(C)(=O)=N/C(N)=N/OCCCCF` (stereo not drawn) [Compound 55] it is 80 to 100%. In the case of `CCOC(=O)NC(=S)N=S(C)(=O)C(C)c1ccc(C(F)(F)F)nc1` (stereo not drawn) [Compound 19], the pest or weed control at 200 ppm in series [1] (foliar) lay within 80 to 100%. Take `CCOC(=O)CNC(=S)N=S(C)(=O)C(C)c1ccc(C(F)(F)F)nc1` (stereo not drawn) [Compound 12]: the pest or weed control at 200 ppm in series [1] (setting [2]) was in the range of 80 to 100%. Still for that read-out and setting: for `CC(c1ccc(C(F)(F)F)nc1)S(C)(=O)=N/C(N)=N/OCC1CC1` (stereo not drawn) [Compound 51] the value was 80 to 100%. Still for that read-out and setting: the figure for `CN/C(N=S(C)(=O)C(C)c1ccc(C(F)(F)F)nc1)=N\OC` (stereo not drawn) [Compound 63, N″-methoxy-N-methyl-N′-(methyl(oxido){1-[6-(trifluoromethyl)pyridin-3-yl]ethyl}-λ^4-sulfanylidene)guanidine] is 80 to 100%.
